In US9980942B2, “Rejuvenation of precursor cells” (Children's Hospital Medical Center, priority 2012, dated 2018):
Entries after “also recorded” stand apart in the source; their conditions may differ.

Experiments:
[1] = Weight of young and aged mice after CASIN; assay type: in vivo, C57BL/6 mice; settings: aged mice, 2.4 mg/kg twice a day for 5 days intraperitoneal, after 1 week
Procedure: CASIN was given at a dose of 2.4 mg/kg twice a day 6 hours apart for 5 days via intraperitoneal injection in both young (10-12 wk old) and aged (22-24 month old) C57BL/6 mice. Aged C57BL/6 mice present with elevated Cdc42 activity in multiple tissues. Weight of the mice was determined in the young and aged control group (no CASIN, just vehicle (PBS/15% Ethanol)) at initiation of the experiment and after 1 week, as well as in the CASIN treated groups (young and aged) at initiation and 1 week after.

[2] = tested on: aged LT-HSCs; assay: Apoptosis and cell cycle staining (Hoechst/Pyronin Y, Annexin V); assay type: cell-based, mouse; settings: 5 μM CASIN, 16 hrs
Procedure: Hoechst/PY staining was performed as previously described (Passegue et al., 2005). Briefly, 25,000 FACS-sorted LT-HSCs were incubated for 16 hrs in HBSS+10% FBS±CASIN (5 μM) in a water jacketed incubator at 37° C., 5% CO2, 3% O2. Then HOECHST 33342 (Invitrogen) was added directly to the medium at a final concentration of 20 μg/ml and samples were kept in incubation at 37° C., 5% CO2, 3% O2 for 45 min. PironinY (Sigma-Aldrich) was then added at a concentration of 1 μg/ml, and cells were incubated for additional 15 minutes. Cells were resuspended and incubated with anti-Annexin V (BD Pharmingen) according to manufacturer's instruction, washed and immediately analyzed on a LSRII (BD Biosciences).

[3] = tested on: skin epithelium; assay: In vivo rejuvenation of skin epithelium (immunohistochemistry, skin thickness); set-up: species or system mice
Procedure: To test the extent to which CASIN rejuvenates skin and intestinal epithelium in vivo, aged (22-24 month old B1 6) and young (10-12 week old B1 6) mice were injected with CASIN twice daily (2.4 mg/Kg in PBS and 15% EtOH). A group of control mice in each age group were not given the drug. The injections were given 6 hours apart for 5 days. After 28 days, the mice were sacrificed and skin and intestinal samples were processed for immunohistochemistry.
(§1) To further assess the effects of in vivo administration of CASIN on aging parameters in the skin, aged mice were treated with CASIN as described in Example 5. The treated and untreated aged and young mice were then tested for skin thickness.

[4] = tested on: skin; assay: Topical rejuvenation of dermal tissue; assay type: in vivo; settings: aged mice, topical non-transdermal formulation
Procedure: as §1, with “are” for “were”, “5. However, instead of intraperitoneal injection, CASIN is administered topically in a formulation designed for non-transdermal use.” for “5.”, “thickness and wound healing.” for “thickness.”

[5] = tested on: aged LT-HSCs; assay: Immunofluorescence polarity scoring of Cdc42 and tubulin; assay type: cell-based, mouse
Procedure: Freshly sorted LT-HSCs were seeded on fibronectin-coated glass coverslips in HBSS+10% FBS. CASIN (referred to in (Peterson et al., 2006) as Pirl1-related compound 2) was obtained from Chembridge Corporation, and purified to greater than 99% by high-performance liquid chromatography. After 16 hours of incubation at 37° C., 5% CO2, 3% O2, cells were fixed with BD Cytofix Fixation Buffer (BD Biosciences).
After fixation cells were gently washed with PBS, permeabilized with 0.2% Tryton X-100 (Sigma) in PBS for 20 minutes and blocked with 10% Donkey Serum (Sigma) for 30 minutes. Primary and secondary antibodies incubations were performed for 1 hr at room temperature. […] The cells were coimmunostained with an anti-alpha tubulin antibody (Abcam, rat monoclonal ab6160) detected with an anti-rat AMCA-conjugated secondary antibody or an anti-rat DyLight 488-conjugated antibody (Jackson ImmunoResearch), an anti-Cdc42 antibody (Millipore, rabbit polyclonal) detected with an anti-rabbit DyLight 549-conjugated antibody (Jackson ImmunoResearch) and an anti-Pericentrin-2 antibody (Santa Cruz Biotechnology, goat polyclonal) detected with an anti-goat MCAconjugated antibody (Jackson ImmunoResearch). […] Images were analyzed with AxioVision 4.6 software. Alternatively, samples were analyzed with an LSM710 confocal microscope (Zeiss) equipped with a 63X objective. […]

[6] = tested on: HSC; assay: In vivo rejuvenation of HSC (Example 6); set-up: species or system mice
Procedure: To test the extent to which CASIN rejuvenates HSC in vivo, aged (20+ months old mice) are given CASIN i. v. or i.p. twice daily for 28 days and compared to young as well as aged solvent injected control groups. In 28 days most of the HSCs cycle at least once in vivo. Subsequently, PB is harvested every 14 days for a total of 2 months and differential blood counts (myeloid cells, lymphoid cells, red blood cells etc) are determined by hemavat counting and flow cytometry. At 3 months post CASIN treatment, when hematopoesis should be fully supported by stem cell activity of the CASIN exposed HSCs, animals are sacrificed and the number of early hematopoietic progenitor cells (Lineage^negc-Kit^+Sca-1^+ or LSK), long-term repopulating-HSC (LSKCD34^low/−Flk-2^−, LT-HSC), lymphoid-primed multi-potent progenitors (LMPPs, LSKCD34^+Flk-2^+11, 23, 24) are determined.
Separately, to investigate the effect of CASIN on stem cell fitness and lineage differentiation, standard competitive transplantation assays are performed using the syngeneic CD45.1/CD45.2 surface marker system to differentiate donor from recipient cells. […] Lineage chimerism (myeloid, B- and T-lymphoid) in peripheral blood (PB) is then determined up to 24-weeks post-transplant. […]

OCCNC1CCCc2c1[nH]c1ccc(-c3ccccc3)cc21 (centres unmarked) [CASIN]
weight [1]: significant reduction; also recorded: weight loss | apoptosis [2]: did not alter; also recorded: doesn't alter | cell cycle status [2]: did not alter; also recorded: doesn't alter | skin thickness ([3]; aged mice treated as in Example 5): approximately equal to that of young mice | number and density of hair follicles ([3]; aged mice, 2.4 mg/Kg twice daily for 5 days, after 28 days, vs untreated aged mice): marked improvement | skin thickness [4]: approximately equal to that of young mice | wound healing [4]: respond similarly or nearly identical to the skin of young mice | time the increase in percentage of polar cells remained stable after CASIN withdrawal ([5]; aged LT-HSCs in vitro): ≥ 6 h | percentage of polarized cells (Cdc42 and tubulin) ([5]; aged LT-HSCs, 2.5 and 5 μM CASIN): dose-dependent increase | preferential differentiation towards the myeloid lineage ([6]; CASIN-treated aged HSCs): ameliorated | chimerism in competitive transplant assays ([6]; HSCs from CASIN-treated aged animals): greater than the overall chimerism supported by aged HSCs and similar to that observed for young HSCs
